The subject of one data set is GRP receptor. To be noted: lung slices from one non-human primate, 2 slices MCh + antagonist; morphological assessment; cited from earlier work.
For the next data set, the system named is ozone-induced AHR. In words: Ozone-induced AHR mouse model (asthma precipitated by air pollution). It is filed as in vivo. An excerpt:
(§1) We have carried out experiments with GRP blockade given as an intraperitoneal (IP) injection to prevent and/or treat AHR in several different mouse models of airways hyperreactivity (AHR) and/or inflammation: ozone-induced AHR as a model for asthma precipitated by air pollution, ovalbumin (OVA)-induced AHR as a model of allergic airways inflammation, and endotoxin (lipopolysaccharide, LPS)-induced AHR as a first step towards assessing infectious causes of asthma. These experiments used the small molecule GRP inhibitor, 77427, or a monoclonal anti-GRP blocking antibody, 2A 11. […] In the near future, we hope to test GRP blockade in additional mouse models of asthma, including: Mycoplasma infection, respiratory syncytial virus (RSV) infection, Aspergillus infection, and house dust mite exposure.
(§2) In contrast, mice were treated with dexamethasone (Dex), the standard of care for asthma, before ozone exposure.

The conditions of data set [1]: F. Cuttitta, unpublished data; cited from earlier work.
Data set [2] deals with T1, GRP (Homo sapiens, UniProt P07492).
T1 sequence (P07492 24-50 limits assumed): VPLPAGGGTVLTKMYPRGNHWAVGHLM
To be noted: prevention of antibody-ligand interaction; blocking GRP-induced IP3 production and Ca2+ flux; cited from earlier work. A general note: Calcium flux is commonly read through the fluorescence of an indicator in the cells.

In data set [3] the test system is chronic radiation pneumonitis. The data set is described as follows: Chronic radiation pneumonitis in mice after 15 Gy thoracic radiation. It is filed as in vivo. To be noted: 500 nM 77427 twice a week IP following 15 Gy thoracic radiation. The procedure:
We can also block chronic radiation pneumonitis in mice given 500 nM 77427 twice a week IP following 15 Gy thoracic radiation.

A further data set has as its system GRP-induced angiogenesis. The following applies: in vitro and in vivo; cited from earlier work.
The target of data set [4] is T1, GRP. The following applies: cited from earlier work.
Data set [5] has as its system endothelial cell tube formation. The following applies: Matrigel support matrix; cited from earlier work.
For the next data set, the system named is cytokines. The data set is described as follows: Cytokine levels in ozone and ovalbumin in vivo mouse models of asthma. The source says:
We have carried out experiments with GRP blockade given as an intraperitoneal (IP) injection to prevent and/or treat AHR in several different mouse models of airways hyperreactivity (AHR) and/or inflammation: ozone-induced AHR as a model for asthma precipitated by air pollution, ovalbumin (OVA)-induced AHR as a model of allergic airways inflammation, and endotoxin (lipopolysaccharide, LPS)-induced AHR as a first step towards assessing infectious causes of asthma. […] The invention would extend to any compound able to block GRP signaling by either binding to GRP itself or to the GRP receptor, which are part of the same signal transduction cascade. In the near future, we hope to test GRP blockade in additional mouse models of asthma, including: Mycoplasma infection, respiratory syncytial virus (RSV) infection, Aspergillus infection, and house dust mite exposure.

A further data set has as its system neovascularization. To be noted: on a molar basis (≈500 nM), compared with MoAb-2A11; cited from earlier work.
Data set [6] relates to ovalbumin (OVA)-induced AHR. The data set is described as follows: Ovalbumin (OVA)-induced AHR mouse model (allergic airways inflammation). The format is in vivo.
Text: as §1, §2

The half-life is the time needed for the level to fall by half in the phase considered.

Where two headings read alike, the source gives them in different places.

Regarding [Leu^13-(ψ-CH2NH)-Leu^14]-bombesin, the “MCh-induced reduction of internal airway diameter (bronchoconstriction) of bronchi” value in the data set with GRP receptor is “slightly reduced”.
With `C[C@@H]1C[C@H]2[C@@H]3CCC4=CC(=O)C=C[C@]4(C)[C@@]3(F)[C@@H](O)C[C@]2(C)[C@@]1(O)C(=O)CO` [Dex, dexamethasone], in the data set with ozone-induced AHR (treatment before ozone, IL-6, IL-12 (p40), TNFα), the “number of cytokines with significantly increased levels” value is given as 3.
With `Nc1nc(Cl)cc(NCCO)n1` [compound 77427], the half-life in data set [1] is about 240 h. The “mimetic to MoAb-2A11 / antagonist to GRP in screen” value on GRP [2] was “ideal mimetic to MoAb-2A11”. Besides, in data set [3], the chronic radiation pneumonitis result is on record as “block”. Also, the “inhibition of GRP-induced angiogenesis” value with GRP-induced angiogenesis is “potent inhibitor”. The “airway hyperreactivity (AHR)” value (with ozone-induced AHR (ozone model); in data set [6]) was “abrogates” throughout. The airways inflammation result (in the data set on ozone-induced AHR (ozone model); in [6]) was “abrogates” each time. Further, the “blocks % of GRP” value on GRP [4] (5 nM 77427) is given as 50%; at GRP [4] (50 nM 77427) it was 70%; at GRP [4] (500 nM 77427) it was 95%. Besides, in data set [5], the “blocking of GRP mediated endothelial cell tube formation” value is “effective blocker”. Besides, in the data set on cytokines (FIG. 2A), the “Interleukin-2 (IL-2)” value is reported as “suppression”. Also, the TNF-alpha entry in the data set with cytokines (FIG. 2C) is “suppression”. Besides, the GM-CSF entry in the data set on cytokines (FIG. 2D) is “suppression”. The IL-4 result in the data set with cytokines (FIG. 2E) is reported as “suppression”. In addition, the IL-5 result with cytokines (FIG. 2F) was “suppression”. Besides, the IL-13 entry in the data set on cytokines (FIG. 2G) was “suppression”. Also, in the data set on cytokines (FIG. 2H), the IL-6 result was “suppression”. Besides, the IL-17 entry in the data set on cytokines (FIG. 2I) is given as “suppression”. Further, in the data set on cytokines (FIG. 2J), the MCP-1 entry is reported as “suppression”. Further, the KC result in the data set with cytokines (FIG. 2K) is “suppression”. In addition, the VEGF result in the data set on cytokines (FIG. 2L) was “suppression”. Further, the “cytokines tested whose increased levels are significantly suppressed (P<0.0001) or abrogated” value in the data set on cytokines (ozone and ovalbumin models, cytokines represent at least 5 inflammatory cell types) is recorded as 21 of 21. In the data set with neovascularization, the “suppressive response in stopping neovascularization” value is listed as “equivalent suppressive response as MoAb-2A11”.

These data come from US20130280270A1, “METHODS OF TREATING LUNG DISEASE AND OTHER INFLAMMATORY DISEASES” (Duke University, priority 2009, published 2013).
